Reference: patent US12398411B2, “Method for producing selenoneine” (KIKKOMAN CORPORATION, priority 2018, dated 2025)

Key:
[1] = known to have; no test by the applicant; cited from earlier work
[2] = tested on: Aspergillus sojae NBRC4239 strain; test: Toxicity of selenium compounds: cell proliferation with alamarBlue Cell Viability Reagent; format: cell-based; conditions: conidia of Aspergillus sojae NBRC4239; 0-2 mM final concentration; 30° C. for 30 hours
Description: The cytotoxicity of sodium selenite was tested as follows. To quantify cell proliferation, alamarBlue Cell Viability Reagent (Thermo Fisher Scientific) was used.
The mixture composed of 2× DPY liquid medium (2 (w/v) % polypeptone, 4 (w/v) % dextrin, 1 (w/v) % yeast extract, 1 (w/v) % KH2PO4, 0.1 (w/v) % MgSO4·7H2O; pH not adjusted), 2× alamarBlue and 2×10^4 cells/ml the conidia of Aspergillus sojae NBRC4239 strain was dispensed in the volume of 100 μl into each well of a microplate. Similarly, 100 μl of an aqueous sodium selenite solution was added to each well so that the final concentration was 0 mM, 0.125 mM, 0.25 mM, 0.5 mM, 1 mM and 2 mM. The blank without the addition of the conidia and sodium selenite solution was used as a blank.
After incubating the microplate at 30° C. for 30 hours, absorbance at 570 nm was measured. A plot of the value calculated by subtracting absorbance at 600 nm of the blank from the measurement result according to the instruction manual of alamarBlue reagent is shown in FIG. 4.

Row | Structure (SMILES) | antioxidant activity relative to its thio analog, ergothioneine [1] | degree of mycelial growth observed visually [2] | growth inhibition (cytotoxicity, absorbance at 570 nm, FIG. 4) [2]
1 | C[N+](C)(C)[C@@H](Cc1cnc([Se-])[nH]1)C(=O)O [selenoneine] | 1,000 times |  | 
2 | O=[Se](O)O [sodium selenite] |  | No difference | no growth inhibition
